Laboratory results from ChEMBL document CHEMBL1138902, “New 3-alkylamino-4H-thieno-1,2,4-thiadiazine 1,1-dioxide derivatives activate ATP-sensitive potassium channels of pancreatic beta cells” (J Med Chem, 2006).

Experiments:
Beta-TC6 [1] = assay: Inhibition of glucose-stimulated insulin release in beta-TC6 cells at 10 uM; type: functional, Mus musculus
Beta-TC3 = assay: Repolarization of beta-TC3 cells; type: functional, cell-based, Mus musculus
Rattus norvegicus [2] = species: Rattus norvegicus; assay: Inhibition of glucose-stimulated insulin release in Wistar rat islets; type: functional, organism-based
Beta-TC6 [3] = assay: Inhibition of glucose-stimulated insulin release in betaTC6 cells; type: functional, cell-based; settings: Mus musculus
Rattus norvegicus [4] = species: Rattus norvegicus; assay: Relaxation of precontracted Wistar rat aorta rings; type: functional, organism-based; settings: for EC50: Rattus norvegicus, Aorta
[5] = target: T1, Sulfonylurea receptor 1, Kir6.2 (Homo sapiens, UniProt Q09428+Q14654); assay: Repolarization of HEK293 cells expressing Kir6.2/SUR1 KATP channels; type: functional, cell-based
[6] = Oral bioavailability in Sprague-Dawley rat at 1.89 mg/kg, po; type: ADME, organism-based; settings: in vivo
[7] = Cmax in Sprague-Dawley rat at 1.89 mg/kg, po; type: ADME, organism-based; parameters: dose 1.89 mg/kg, route oral; settings: in vivo
Rattus norvegicus [8] = assay: Reduction in plasma insulin level in po dosed Zucker obese rat after 2 hrs; type: functional; settings: read-out: ID50 (the source's name)
[9] = Half life in Sprague-Dawley rat at 1.89 mg/kg, po; type: ADME, organism-based; parameters: dose 1.89 mg/kg, route oral; settings: in vivo
Rattus norvegicus [10] = assay: Reduction in plasma insulin level in anaesthetized Sprague-Dawley rat at 3 mg/kg, iv; type: functional
[11] = Clearance in Sprague-Dawley rat at 1.89 mg/kg, po or 0.89 mg/kg, iv; type: ADME, organism-based; settings: in vivo
[12] = Tmax in Sprague-Dawley rat at 1.89 mg/kg, po or 0.89 mg/kg, iv; type: ADME, organism-based; settings: in vivo
[13] = Tmax in Sprague-Dawley rat at 2.48 mg/kg, po or 1.08 mg/kg, iv; type: ADME, organism-based; settings: in vivo
[14] = Cmax in Sprague-Dawley rat at 2.48 mg/kg, po; type: ADME, organism-based; parameters: dose 2.48 mg/kg, route oral; settings: in vivo
[15] = Half life in Sprague-Dawley rat at 2.48 mg/kg, po; type: ADME, organism-based; parameters: dose 2.48 mg/kg, route oral; settings: in vivo
[16] = Oral bioavailability in Sprague-Dawley rat at 2.48 mg/kg, po; type: ADME, organism-based; settings: in vivo
[17] = Plasma concentration in Sprague-Dawley rat after 30 mins; type: ADME, organism-based
[18] = Clearance in Sprague-Dawley rat at 2.48 mg/kg, po or 1.08 mg/kg, iv; type: ADME, organism-based; settings: in vivo
[19] = Half life in Sprague-Dawley rat at 2 mg/kg, po; type: ADME, organism-based; parameters: dose 2 mg/kg, route oral; settings: in vivo
[20] = Tmax in Sprague-Dawley rat at 2 mg/kg, po or 0.5 mg/kg, iv; type: ADME, organism-based; settings: in vivo
Rattus norvegicus [21] = assay: Oral bioavailability in Sprague-Dawley rat at 2 mg/kg, po; type: ADME, organism-based; settings: in vivo
[22] = Clearance in Sprague-Dawley rat at 2 mg/kg, po or 0.5 mg/kg, iv; type: ADME, organism-based; settings: in vivo
[23] = Cmax in Sprague-Dawley rat at 2 mg/kg, po; type: ADME, organism-based; parameters: dose 2 mg/kg, route oral; settings: in vivo
[24] = Clearance in Sprague-Dawley rat at 2.19 mg/kg, po or 1.22 mg/kg, iv; type: ADME, organism-based; settings: in vivo
[25] = Half life in Sprague-Dawley rat at 2.19 mg/kg, po; type: ADME, organism-based; parameters: dose 2.19 mg/kg, route oral; settings: in vivo
[26] = Tmax in Sprague-Dawley rat at 2.19 mg/kg, po or 1.22 mg/kg, iv; type: ADME, organism-based; settings: in vivo
[27] = Oral bioavailability in Sprague-Dawley rat at 2.19 mg/kg, po; type: ADME, organism-based; settings: in vivo
[28] = Cmax in Sprague-Dawley rat at 2.19 mg/kg, po; type: ADME, organism-based; parameters: dose 2.19 mg/kg, route oral; settings: in vivo
[29] = Cmax in Sprague-Dawley rat at 2.3 mg/kg, po; type: ADME, organism-based; parameters: dose 2.3 mg/kg, route oral; settings: in vivo
[30] = Half life in Sprague-Dawley rat at 2.3 mg/kg, po; type: ADME, organism-based; parameters: dose 2.3 mg/kg, route oral; settings: in vivo
[31] = target: T1, Sulfonylurea receptor 1, Kir6.2; assay: Displacement of [3H]glibenclamide from human Kir6.2/SUR1 expressed in HEK293 cells in presence of 2 mM ATP; type: cell-based
[32] = Tmax in Sprague-Dawley rat at 2.3 mg/kg, po or 1.24 mg/kg, iv; type: ADME, organism-based; settings: in vivo
[33] = Oral bioavailability in Sprague-Dawley rat at 2.3 mg/kg, po; type: ADME, organism-based; settings: in vivo
[34] = target: T1, Sulfonylurea receptor 1, Kir6.2; assay: Displacement of [3H]glibenclamide from human Kir6.2/SUR1 expressed in HEK293 cells; type: cell-based
[35] = Clearance in Sprague-Dawley rat at 2.3 mg/kg, po or 1.24 mg/kg, iv; type: ADME, organism-based; settings: in vivo
[36] = Mus musculus, Beta-TC3, read-out: EC50

T1 sequence (Q14654 whole entry): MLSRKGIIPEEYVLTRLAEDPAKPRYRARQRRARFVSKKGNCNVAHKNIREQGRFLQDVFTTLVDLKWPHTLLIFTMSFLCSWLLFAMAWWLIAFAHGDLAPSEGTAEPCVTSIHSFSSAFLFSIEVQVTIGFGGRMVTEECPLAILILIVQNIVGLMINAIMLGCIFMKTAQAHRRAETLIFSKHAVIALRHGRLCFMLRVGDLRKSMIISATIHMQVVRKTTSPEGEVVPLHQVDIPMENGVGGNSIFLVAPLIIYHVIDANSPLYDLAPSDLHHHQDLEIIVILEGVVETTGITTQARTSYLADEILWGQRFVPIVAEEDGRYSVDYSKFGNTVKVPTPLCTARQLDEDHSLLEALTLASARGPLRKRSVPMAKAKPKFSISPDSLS
T1 sequence (Q09428 whole entry): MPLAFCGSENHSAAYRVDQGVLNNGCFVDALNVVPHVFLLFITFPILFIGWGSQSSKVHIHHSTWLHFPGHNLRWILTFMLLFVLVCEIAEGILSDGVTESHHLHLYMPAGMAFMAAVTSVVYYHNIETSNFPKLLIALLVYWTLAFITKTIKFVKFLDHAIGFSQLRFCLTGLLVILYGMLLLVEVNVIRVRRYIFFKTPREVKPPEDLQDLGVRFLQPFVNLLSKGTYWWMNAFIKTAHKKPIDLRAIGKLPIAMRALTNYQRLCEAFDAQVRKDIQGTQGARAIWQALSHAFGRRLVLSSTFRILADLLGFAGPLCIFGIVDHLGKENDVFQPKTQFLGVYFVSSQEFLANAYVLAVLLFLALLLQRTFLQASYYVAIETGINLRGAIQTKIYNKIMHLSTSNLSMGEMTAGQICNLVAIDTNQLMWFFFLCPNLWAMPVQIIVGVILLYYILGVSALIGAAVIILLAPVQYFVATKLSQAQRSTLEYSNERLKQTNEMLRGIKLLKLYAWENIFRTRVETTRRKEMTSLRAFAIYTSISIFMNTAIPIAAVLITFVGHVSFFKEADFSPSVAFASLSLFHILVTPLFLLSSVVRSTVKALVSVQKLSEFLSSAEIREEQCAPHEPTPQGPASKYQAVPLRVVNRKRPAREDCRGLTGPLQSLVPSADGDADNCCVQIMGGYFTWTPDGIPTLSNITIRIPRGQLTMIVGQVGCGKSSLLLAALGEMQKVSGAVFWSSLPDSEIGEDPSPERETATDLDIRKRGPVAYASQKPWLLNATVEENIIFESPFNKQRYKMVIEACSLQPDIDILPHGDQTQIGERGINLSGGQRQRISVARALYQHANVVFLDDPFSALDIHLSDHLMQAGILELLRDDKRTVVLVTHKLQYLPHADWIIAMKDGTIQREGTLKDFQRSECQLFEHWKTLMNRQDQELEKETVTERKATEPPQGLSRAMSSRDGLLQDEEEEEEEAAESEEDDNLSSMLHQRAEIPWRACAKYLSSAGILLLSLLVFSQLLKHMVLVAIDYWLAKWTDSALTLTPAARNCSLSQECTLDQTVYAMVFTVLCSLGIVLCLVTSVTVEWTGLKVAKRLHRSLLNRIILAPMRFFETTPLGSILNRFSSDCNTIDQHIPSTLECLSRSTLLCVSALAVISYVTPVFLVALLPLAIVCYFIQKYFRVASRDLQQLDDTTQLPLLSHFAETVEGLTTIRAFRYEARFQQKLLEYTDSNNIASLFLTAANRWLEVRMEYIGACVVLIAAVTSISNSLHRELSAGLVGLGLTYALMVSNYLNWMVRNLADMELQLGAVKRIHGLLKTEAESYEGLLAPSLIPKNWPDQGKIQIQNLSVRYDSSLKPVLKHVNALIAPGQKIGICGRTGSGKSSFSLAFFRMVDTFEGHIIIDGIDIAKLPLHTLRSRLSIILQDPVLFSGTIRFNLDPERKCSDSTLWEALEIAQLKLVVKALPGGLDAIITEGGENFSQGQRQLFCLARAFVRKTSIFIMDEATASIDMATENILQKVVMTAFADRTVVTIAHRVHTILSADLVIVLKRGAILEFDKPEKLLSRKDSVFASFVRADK

SMILES | EC50 (Beta-TC3; [36]) [nM] | EC50 (Beta-TC6 [3]) [nM] | EC50 (Rattus norvegicus [4]) [nM] | Efficacy (Beta-TC6 [1]) [%] | further results
CC(C)NC1=NS(=O)(=O)c2cc(Cl)sc2N1 | 5000 | 19800 | > 300000 | 16 | –
CC1(NC2=NS(=O)(=O)c3sc(Br)cc3N2)CC1 | 140 | 310 | 133000 | 81 | Tmax [13]: 1.5 h; Cmax [14]: 885 ng/mL; half-life [15]: 2.6 h; ED50 (Rattus norvegicus [8]): < 3 mg/kg; EC50 (Rattus norvegicus [2]): 20 nM; bioavailability [16]: 96%; inhibition in vivo at 3 mg/kg (Rattus norvegicus [10]): 97%; concentration at 0.5 h [17]: 340 ng/mL; clearance [18]: 15 mL/min/kg; EC50 [5]: 160 nM
CC1=Nc2ccc(Cl)cc2S(=O)(=O)N1 [DIAZOXIDE] | 13700 | 23000 | – | 25 | half-life [19]: 1.32 h; Tmax [20]: 1 h; F (Rattus norvegicus [21]): 154%; ED50 (Rattus norvegicus [8]): > 30 mg/kg; EC50 (Rattus norvegicus [2]): 20300 nM; clearance [22]: 8 mL/min/kg; inhibition in vivo at 3 mg/kg (Rattus norvegicus [10]): 53%; Cmax [23]: 1450 ng/mL
CC1(NC2=NS(=O)(=O)c3cc(Cl)sc3N2)CC1 | – | – | – | – | EC50 (Beta-TC3; beta-tc3): Not Active
CC1(NC2=NS(=O)(=O)c3scc(Cl)c3N2)CC1 | – | 280 | – | 2 | EC50 (Beta-TC3; beta-tc3): Not Active
CC1(NC2=NS(=O)(=O)c3sccc3N2)CC1 | > 30000 | 190 | 6870 | 19 | Efficacy (Rattus norvegicus [4]): 18%
CN1C(NC2(C)CC2)=NS(=O)(=O)c2sc(Cl)cc21 | – | 740 | – | 23 | EC50 (Beta-TC3; beta-tc3): Not Active
CC1(NC2=NS(=O)(=O)c3scc(Br)c3N2)CC1 | – | 6700 | – | 5 | EC50 (Beta-TC3; beta-tc3): Not Active

More lines, main results first:

EC50 (Beta-TC3; [36]) [nM] | EC50 (Beta-TC6 [3]) [nM] | EC50 (Rattus norvegicus [4]) [nM] | SMILES | Efficacy (Beta-TC6 [1]) [%] | further results
480 | 2670 | 183000 | O=S1(=O)NC(NC2(c3ccccc3)CC2)=Nc2cc(Cl)sc21 | 66 | EC50 (Rattus norvegicus [2]): 110 nM; EC50 [5]: 810 nM
500 | 3570 | 2890 | COc1ccc(C2(NC3=NS(=O)(=O)c4sc(Cl)cc4N3)CC2)cc1 | 69 | –
2000 | 2070 | 95000 | C[C@H](NC1=NS(=O)(=O)c2sc(Cl)cc2N1)c1ccc(Br)cc1 | 69 | –
3100 | 150 | 173000 | O=S1(=O)N=C(NCC(F)(F)F)Nc2cc(Cl)sc21 | 36 | –
– | 250 | – | CC1(NC2=NS(=O)(=O)c3sc(Cl)cc3N2)CC1 [TIFENAZOXIDE] | 73 | bioavailability [6]: 103%; Cmax [7]: 1230 ng/mL; ED50 (Rattus norvegicus [8]): 1.5 mg/kg; half-life [9]: 4.17 h; inhibition in vivo at 3 mg/kg (Rattus norvegicus [10]): 85%; clearance [11]: 7.02 mL/min/kg; Tmax [12]: 0.5 h
500 | 990 | 24000 | C[C@@H](NC1=NS(=O)(=O)c2sc(Cl)cc2N1)c1ccccc1 | 68 | –
3600 | 6110 | 133000 | O=S1(=O)NC(NCc2ccccc2)=Nc2cc(Cl)sc21 | 30 | Emax (Beta-TC3; Mus musculus, Beta-TC3): < 60%
20 | 20 | – | CC1(NC2=NS(=O)(=O)c3sc(Cl)cc3N2)CCC1 | 92 | –
3500 | 13000 | 34900 | C[C@H](NC1=NS(=O)(=O)c2sc(Cl)cc2N1)c1ccccc1 | 28 | Emax (Beta-TC3; Mus musculus, Beta-TC3): < 60%
400 | 1400 | 40000 | O=S1(=O)N=C(NC2(C(F)(F)F)CC2)Nc2cc(Cl)sc21 | 76 | clearance [24]: 5 mL/min/kg; half-life [25]: 5.5 h; Tmax [26]: 0.5 h; ED50 (Rattus norvegicus [8]): 8 mg/kg; EC50 (Rattus norvegicus [2]): 160 nM; bioavailability [27]: 70%; inhibition in vivo at 3 mg/kg (Rattus norvegicus [10]): 90%; Cmax [28]: 533 ng/mL; EC50 [5]: 530 nM
160 | 13400 | 13900 | O=S1(=O)N=C(NC2(c3cccc(Cl)c3)CCC2)Nc2cc(Cl)sc21 | 40 | –
130 | 240 | 103000 | CC(C)(NC1=NS(=O)(=O)c2sc(Cl)cc2N1)c1ccccc1 | 76 | Cmax [29]: 2590 ng/mL; half-life [30]: 0.867 h; ED50 (Rattus norvegicus [8]): 4 mg/kg; EC50 (Rattus norvegicus [2]): 40 nM; IC50 [31]: 81 nM; inhibition in vivo at 3 mg/kg (Rattus norvegicus [10]): 86%; Tmax [32]: 0.25 h; bioavailability [33]: 82%; EC50 [5]: 180 nM; IC50 [34]: 360000 nM; clearance [35]: 7.3 mL/min/kg
